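1) Cells in 96-well plates. 2) Compound, 48 h, 5 concentrations. 3) Linear interpolation between surrounding doses. 4) Unreached endpoint = highest concentration. GI50 is the concentration that inhibits growth by half.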 Activity calls are given as the source filed them. No stated cut-off is given here; in the data, active = GI50 up to about 1.1 µM and inactive = higher. Some results are limits rather than exact numbers.

Common to all, as to experiment: NCI-60 cell line screen, 48 h
Test [1] has as its system BT-549.
Test [2] concerns COLO 205.
Test [3] concerns DU-145.
Test [4] relates to EKVX.
Test [5] relates to HCT-116.
The test system of test [6] is HCT-15.
In test [7] the test system is HOP-92.
Test [8] concerns KM12.
In test [9] the test system is LOX IMVI.
Test [10] deals with MDA-N.
Test [11] has as its system NCI-H226.
For test [12], the system named is OVCAR-3.
The subject of test [13] is RXF 393.
Test [14] has as its system SK-MEL-28.
Test [15] deals with SK-MEL-2.
Test [16] deals with U-251.
In test [17] the test system is UACC-257.
For test [18], the system named is UACC-62.
The subject of test [19] is SF-539.
Test [20] deals with TK-10.

For the compound `O=CC(O)C(O)C1OC(=O)c2cc(O)c(O)c(O)c2C2=C(O)C(O)=C3OC(=O)c4c(c(O)c(O)c5c4C3C2C(=O)O5)-c2c(cc(O)c(O)c2O)C(=O)OCC1O` (configuration not stated), the GI50 in test [1] was > 100 µM (inactive); in test [2] it was 23.2 µM (inactive); in test [3] it was 17.9 µM (inactive); in test [4] it was 23.7 µM (inactive); in test [5], 15.4 µM (inactive); in test [6] it was 20.3 µM. Moreover, the GI50 in [7] is 18 µM (inactive); in test [8], 10.4 µM (inactive); in test [9], 13.6 µM (inactive); in [10], 19 µM (inactive); in test [11], 21.4 µM (inactive); in test [12], 18.2 µM (inactive). Also, the GI50 in test [13] was > 100 µM (inactive); in test [14], 44.3 µM (inactive); in test [15], 33 µM (inactive); in test [16], 19.2 µM (inactive); in test [17] it was 49.5 µM (inactive); in test [18], 29.2 µM (inactive).
As for `CC(=O)O[C@H]1C(=O)[C@]2(C)[C@@H](OC(=O)OCC(O)CO)C[C@H]3OC[C@@]3(OC(C)=O)[C@H]2[C@H](OC(=O)c2ccccc2)[C@]2(O)C[C@H](OC(=O)[C@H](O)[C@@H](NC(=O)c3ccccc3)c3ccccc3)C(C)=C1C2(C)C` (some centres not stated) [PACLITAXEL CERIBATE], the GI50 in test [1] was < 0.0147 µM (active); in test [2], < 0.01 µM (active); in [3], < 0.01 µM (active); in test [4], 0.0387 µM (active); in test [5], < 0.01 µM (active); in test [6] it was 0.143 µM. The GI50 in test [7] is 22.4 µM (inactive); in test [8] it was < 0.01 µM (active); in test [9], < 0.01 µM (active); in [10] it was < 0.01 µM (active); in test [12] it was < 0.01 µM (active); in [13] it was < 0.01 µM (active). Besides, the GI50 was < 0.01 µM (active) in test [19]; 14.5 µM (inactive) in [14]; < 0.01 µM (active) in test [15]; 0.0875 µM (active) in [20]; < 0.01 µM (active) in [16]; < 0.01 µM (active) in test [17]. Further, in [18], the GI50 was < 0.01 µM (active).
Take `Cc1cn(C(Cc2ccccc2)OCCO)c(=O)[nH]c1=O` (configuration not stated): the GI50 in test [1] is > 100 µM (inactive); in test [2], > 100 µM (inactive); in test [3], > 100 µM (inactive); in [4], > 100 µM (inactive); in test [5], > 100 µM (inactive); in test [6] it was over 100 µM. The GI50 in [7], in test [8], in test [9], in [10], in [11] and in test [12] was > 100 µM (inactive) each time. Also, the GI50 in [13], in [19], in test [14], in test [15], in [16] and in [17] was > 100 µM (inactive) throughout. Besides, the GI50 in test [18] was > 100 µM (inactive).
Turning to `CC(C)c1ccc2c(c1)/C(=C1/Nc3ccccc3C1=O)C(=O)N2`, the GI50 is 18.1 µM (inactive) in test [1]; > 100 µM (inactive) in test [2]; 15.2 µM (inactive) in test [3]; 5.7 µM (inactive) in [4]; 11.3 µM (inactive) in [5]; 36.5 µM in test [6]. In addition, the GI50 in test [7] is 4.58 µM (inactive); in test [8], 0.0973 µM (active); in test [9] it was > 100 µM (inactive); in test [10], 28.8 µM (inactive); in [11], 3.62 µM (inactive); in [12], 19 µM (inactive). In addition, the GI50 in [13] is 1.42 µM (inactive); in test [14], > 100 µM (inactive); in test [15] it was 14.3 µM (inactive); in [20] it was 5.01 µM (inactive); in test [16] it was 10.6 µM (inactive); in [17], 61.8 µM (inactive). In addition, the GI50 in test [18] is 14.9 µM (inactive).
As for `CN(C)C(=O)C1CCN(Cc2c[nH]c3ccccc23)CC1`, the GI50 in test [1] is > 100 µM (inactive); in test [2], > 100 µM (inactive); in test [3] it was > 100 µM (inactive); in test [4] it was > 100 µM (inactive); in test [5] it was > 100 µM (inactive); in test [6], over 100 µM. Further, the GI50 in [7], in test [8], in [9], in test [10], in [11] and in test [12] was > 100 µM (inactive) in each case. In addition, the GI50 in test [13], in test [14], in test [15], in test [20], in [16] and in [17] was > 100 µM (inactive) each time. Further, in [18], the GI50 is > 100 µM (inactive).
Take `Cc1ccc(/N=N/c2c(O)ccc3ccccc23)c(C)c1`: the GI50 in test [1] is > 100 µM (inactive); in test [2] it was > 100 µM (inactive); in [3], > 100 µM (inactive); in test [5], > 100 µM (inactive); in [6] it was over 100 µM; in test [7], > 100 µM (inactive). The GI50 in test [8], in test [9], in test [10], in test [11], in test [12] and in [13] was > 100 µM (inactive) in each case. For the same compound, the GI50 in test [14], in test [15], in test [20], in test [16], in test [17] and in test [18] was > 100 µM (inactive) throughout.
In the case of `Cc1ccc([N+](=O)[O-])cc1S(=O)(=O)Nc1ccc(C2=NN(c3ccc([N+](=O)[O-])cc3[N+](=O)[O-])C(c3ccccc3O)C2)cc1` (configuration not stated), the GI50 in [1] is 28.2 µM (inactive); in test [2], 32.4 µM (inactive); in test [3] it was 39.1 µM (inactive); in test [4], 26 µM (inactive); in test [5], 29 µM (inactive); in test [6], 27 µM. In addition, the GI50 was 26.6 µM (inactive) in [7]; 37 µM (inactive) in test [8]; 42 µM (inactive) in [9]; 29.3 µM (inactive) in [10]; 36.6 µM (inactive) in [11]; 24.9 µM (inactive) in test [12]. Also, the GI50 was 40.6 µM (inactive) in test [13]; 55.5 µM (inactive) in [19]; 75.5 µM (inactive) in [14]; 20.7 µM (inactive) in test [15]; 43.7 µM (inactive) in test [20]; 37.1 µM (inactive) in [16]. The GI50 in test [17] was 25.2 µM (inactive).
In the case of `NC(CCC(=O)NC(CSC(=O)N(O)c1ccc(Cl)cc1)C(=O)NCC(=O)O)C(=O)O` (configuration not stated), the GI50 in test [1] is > 0.5 µM (active); in test [2] it was > 0.5 µM (active); in test [3], > 0.5 µM (active); in test [4], > 0.5 µM (active); in test [5], > 0.5 µM (active); in test [6] it was over 0.5 µM. For the same compound, the GI50 in test [7], in [8], in test [10], in test [11], in [12] and in test [13] was > 0.5 µM (active) throughout. Also, the GI50 in [19], in test [14], in test [15], in test [16], in [17] and in test [18] was > 0.5 µM (active) in each case.
`Cc1cc2[nH]c(=NS(=O)(=O)c3cc(C)c(Cl)cc3S)[nH]c2cc1C`: the GI50 is > 100 µM (inactive) in test [1]; > 100 µM (inactive) in [2]; > 100 µM (inactive) in test [3]; 24.1 µM (inactive) in [4]; 51.4 µM (inactive) in test [5]; 73.3 µM in [6]. Besides, the GI50 was > 100 µM (inactive) in test [7]; 46.2 µM (inactive) in test [8]; 28.9 µM (inactive) in test [9]; > 100 µM (inactive) in test [10]; > 100 µM (inactive) in test [12]; > 100 µM (inactive) in test [13]. Also, the GI50 in [19] is 68.9 µM (inactive); in test [14], > 100 µM (inactive); in test [15], > 100 µM (inactive); in test [20], > 100 µM (inactive); in test [16] it was 36.2 µM (inactive); in [17], > 100 µM (inactive). Besides, the GI50 in test [18] was > 100 µM (inactive).
Consider `CC[C@]1(Cc2ccc(OC)c(OC)c2)C=[N+]([O-])O[C@H](OC2CCCCC2c2ccccc2)[C@@H]1OC(C)=O` (some centres not stated), for which the GI50 is 70.8 µM (inactive) in [1]; 19.9 µM (inactive) in test [2]; 49 µM (inactive) in test [3]; 46.7 µM (inactive) in test [4]; 34.1 µM (inactive) in test [5]; 37.2 µM in test [6]. Besides, the GI50 is 57.7 µM (inactive) in test [7]; 39.6 µM (inactive) in test [8]; 40.9 µM (inactive) in test [9]; 53.5 µM (inactive) in test [10]; 32.5 µM (inactive) in [11]; 33.4 µM (inactive) in [12]. Moreover, the GI50 was 22.5 µM (inactive) in test [13]; 61.7 µM (inactive) in test [14]; 46.1 µM (inactive) in [15]; > 100 µM (inactive) in [20]; 46.6 µM (inactive) in test [16]; 67.3 µM (inactive) in test [17]. In test [18], the GI50 is 56.1 µM (inactive).
